“And” between values parts separate entries of the source, which are not always exact repeats. Identical values can stand only once.
Columns and labels:
[1] = system: pediatric subjects with moderate atopic dermatitis; experiment: Phase IIIb trial, efficacy by Investigator global assessment (IGA) score on day 43; format: in vivo, human; conditions: for Efficacy (IGA): number of patients that experienced efficacy / Efficacy (IGA): percent of patients that experienced efficacy: IGA score of 0 or 1 on day 43
From the text: The genetic locus was identified in a Phase IIIb trial that was designed as a head to head comparison of pimecrolimus cream 1% and tacrolimus ointment 0.03%. The six-week investigator-blinded trial of pediatric subjects with moderate atopic dermatitis explored the incidence of local application site reactions induced by the two topical macrolactams, as well as their efficacy, safety and cosmetic acceptability. Blood samples for pharmacogenetic analysis were collected from consenting participants in the clinical trial, to define a genetic basis for response to either treatment. Statistical analysis. Investigator global assessment (IGA) scores were used as the primary marker of efficacy in the pharmacogenetic studies. IGA scores at the end of the Investigator Blinded phase of the trial (Day 43) were used as the main time-point for comparison. Last observation carried forward imputations were only required for one subject at day 43. In this case, there was no IGA score available after Day 29, and the score on this day was used in place of a day 43 IGA score. IGA scores were re-coded, as was done to assess efficacy in the trial itself. An IGA score of 0 or 1 was considered successful treatment and IGA scores of 2-5 were counted as treatment failure. The severity of pruritus was also used as a marker of efficacy. Pruritus scores were dichotomized into absence (score=0) or presence (score=1, 2 or 3) of pruritus. The fisher's exact model was employed to examine the genotype effect on each efficacy variable. All statistical analyses were done using SAS version 8.2 software.

[2] = system: pediatric subjects with moderate atopic dermatitis; experiment: Phase IIIb trial, severity of pruritus score on day 43; format: in vivo, human
From the text: The genetic locus was identified in a Phase IIIb trial that was designed as a head to head comparison of pimecrolimus cream 1% and tacrolimus ointment 0.03%. The six-week investigator-blinded trial of pediatric subjects with moderate atopic dermatitis explored the incidence of local application site reactions induced by the two topical macrolactams, as well as their efficacy, safety and cosmetic acceptability. Blood samples for pharmacogenetic analysis were collected from consenting participants in the clinical trial, to define a genetic basis for response to either treatment.
Statistical analysis. Investigator global assessment (IGA) scores were used as the primary marker of efficacy in the pharmacogenetic studies. IGA scores at the end of the Investigator Blinded phase of the trial (Day 43) were used as the main time-point for comparison. Last observation carried forward imputations were only required for one subject at day 43. In this case, there was no IGA score available after Day 29, and the score on this day was used in place of a day 43 IGA score. IGA scores were re-coded, as was done to assess efficacy in the trial itself. An IGA score of 0 or 1 was considered successful treatment and IGA scores of 2-5 were counted as treatment failure. The severity of pruritus was also used as a marker of efficacy. Pruritus scores were dichotomized into absence (score=0) or presence (score=1, 2 or 3) of pruritus. The fisher's exact model was employed to examine the genotype effect on each efficacy variable. All statistical analyses were done using SAS version 8.2 software.
Association between polymorphic markers and relief from pruritus. A secondary efficacy variable used in the trial was pruritus. An analysis was done to see if ASN60THR LTA and (−1031) TNF associated with this efficacy variable (assessed on day 43).

[3] = (−1031) TNF genotype CC, day 43
[4] = (−1031) TNF genotype CT, day 43
[5] = (−1031) TNF genotype TT, day 43
[6] = ASN60THR LTA genotype AA, day 43
[7] = ASN60THR LTA genotype AC, day 43
[8] = ASN60THR LTA genotype CC, day 43
[9] = all (−1031) TNF genotypes, day 43
[10] = all ASN60THR LTA genotypes, day 43
[11] = patients with a C allele (CC or CT) at (−1031) TNF, day 43

`CC[C@@H]1/C=C(\C)C[C@H](C)C[C@H](OC)[C@H]2O[C@@](O)(C(=O)C(=O)N3CCCC[C@H]3C(=O)O[C@H](/C(C)=C/[C@@H]3CC[C@H](Cl)[C@H](OC)C3)[C@H](C)[C@@H](O)CC1=O)[C@H](C)C[C@@H]2OC` [pimecrolimus] was tested, and the “No success (IGA ≧ 2), number of individuals” value [1, 3] was 1, the “No success (IGA ≧ 2), percent” value [1, 3] was 100% and the “Success (IGA = 0 or 1), number of individuals” value [1, 3] was 0 (0%). The “Success (IGA = 0 or 1), percent” value [1, 3] was 0 (0%), the “No success (IGA ≧ 2), number of individuals” value [1, 4] was 9 and the “No success (IGA ≧ 2), percent” value [1, 4] was 100%. The “Success (IGA = 0 or 1), number of individuals” value [1, 4] was 0, the “Success (IGA = 0 or 1), percent” value [1, 4] was 100% and the “No success (IGA ≧ 2), number of individuals” value [1, 5] was 4. For the same compound, the “No success (IGA ≧ 2), percent” value [1, 5] was 33%, the “Success (IGA = 0 or 1), number of individuals” value [1, 5] was 8 and the “Success (IGA = 0 or 1), percent” value [1, 5] was 67%. The “No success (IGA ≧ 2), number of individuals” value [1, 6] was 0 (0%), the “No success (IGA ≧ 2), percent” value [1, 6] was 0 (0%) and the “Success (IGA = 0 or 1), number of individuals” value [1, 6] was 3/3 and 3. For the same compound, the “Success (IGA = 0 or 1), percent” value [1, 6] was 100%, the “No success (IGA ≧ 2), number of individuals” value [1, 7] was 6 and the “No success (IGA ≧ 2), percent” value [1, 7] was 60%. For the same compound, the “Success (IGA = 0 or 1), number of individuals” value [1, 7] was 4/10 and 4, the “Success (IGA = 0 or 1), percent” value [1, 7] was 40% and the “No success (IGA ≧ 2), number of individuals” value [1, 8] was 8. The “No success (IGA ≧ 2), percent” value [1, 8] was 89%, the “Success (IGA = 0 or 1), number of individuals” value [1, 8] was 1 and the “Success (IGA = 0 or 1), percent” value [1, 8] was 11%. For the same compound, the “No success (IGA ≧ 2), number of individuals” value ([1]; LTB (TWT#128095) genotype AC) was 0, the “No success (IGA ≧ 2), percent” value ([1]; LTB (TWT#128095) genotype AC) was 50% and the “Success (IGA = 0 or 1), number of individuals” value ([1]; LTB (TWT#128095) genotype AC) was 1. For the same compound, the “Success (IGA = 0 or 1), percent” value ([1]; LTB (TWT#128095) genotype AC) was 100%, the “No success (IGA ≧ 2), number of individuals” value ([1]; LTB (TWT#128095) genotype CC) was 12 and the “No success (IGA ≧ 2), percent” value ([1]; LTB (TWT#128095) genotype CC) was 63%. For the same compound, the “Success (IGA = 0 or 1), number of individuals” value ([1]; LTB (TWT#128095) genotype CC) was 7, the “Success (IGA = 0 or 1), percent” value ([1]; LTB (TWT#128095) genotype CC) was 37% and the “Efficacy (IGA): number of patients that experienced efficacy” value ([1]; Pharmacogenomics samples) was 8. The “Efficacy (IGA): percent of patients that experienced efficacy” value ([1]; Pharmacogenomics samples) was 36%, the “Efficacy (IGA): number of patients that experienced efficacy” value ([1]; Trial subjects) was 22 and the “Efficacy (IGA): percent of patients that experienced efficacy” value ([1]; Trial subjects) was 32%. The “No success (IGA ≧ 2), number of individuals, Total” value (shortened to “No success … Total”) [1, 9] was 14, the “Success (IGA = 0 or 1), number of individuals, Total” value [1, 9] was 8 and the “No success … Total” value [1, 10] was 13. The “Success (IGA = 0 or 1), number of individuals, Total” value [1, 10] was 7, the “No success … Total” value ([1]; all LTB (TWT#128095) genotypes) was 12 and the “Success (IGA = 0 or 1), number of individuals, Total” value ([1]; all LTB (TWT#128095) genotypes) was 8. The “subjects that responded to treatment (IGA)” value [1, 11] was “None and No patient”, the “success / response rate (IGA)” value [1, 11] was 0% and the “Pruritus (day 43) score 0, percent of subjects” value ([2]; Pharmacogenomics samples) was 10%. The “Pruritus (day 43) score 1, number of subjects” value ([2]; Pharmacogenomics samples) was 14, the “Pruritus (day 43) score 1, percent of subjects” value ([2]; Pharmacogenomics samples) was 67% and the “Pruritus (day 43) score 2, number of subjects” value ([2]; Pharmacogenomics samples) was 3. The “Pruritus (day 43) score 2, percent of subjects” value ([2]; Pharmacogenomics samples) was 14%, the “Pruritus (day 43) score 3, number of subjects” value ([2]; Pharmacogenomics samples) was 2 and the “Pruritus (day 43) score 3, percent of subjects” value ([2]; Pharmacogenomics samples) was 10%. The “Pruritus (day 43) score 0, number of subjects” value ([2]; Trial subjects) was 9, the “Pruritus (day 43) score 0, percent of subjects” value ([2]; Trial subjects) was 13% and the “Pruritus (day 43) score 1, number of subjects” value ([2]; Trial subjects) was 35. For the same compound, the “Pruritus (day 43) score 1, percent of subjects” value ([2]; Trial subjects) was 49%, the “Pruritus (day 43) score 2, number of subjects” value ([2]; Trial subjects) was 15 and the “Pruritus (day 43) score 2, percent of subjects” value ([2]; Trial subjects) was 21%. For the same compound, the “Pruritus (day 43) score 3, number of subjects” value ([2]; Trial subjects) was 10 and the “Pruritus (day 43) score 3, percent of subjects” value ([2]; Trial subjects) was 14%.

— US20070155772A1, “Use of genetic polymorphisms that associate with efficacy of treatment of inflammatory disease” (priority 2003, published 2007)
